Values after ≈ are worked out from the molar mass of the structure shown. Where two headings read alike, the source gives them in different places.
Columns and labels:
[1] = tested on: Lactobacillus spp.; experiment: MIC by CLSI agar dilution, Example 6 Method 1; format: cell-based
Protocol: (§1) Antimicrobial activity was determined by agar dilution using the Clinical and Laboratory Standards Institute (CLSI) recommended procedure.
(§2) The compounds were tested in serial two-fold dilutions and the minimum inhibitory concentration (MIC) was determined as the lowest concentration of the compound that inhibited visible growth. Gepotidacin was tested against 333 gram-negative anaerobic and 203 gram-positive anaerobic isolates collected from clinical samples in North America and Europe from 2000 to 2017; the majority collected from 2013 to 2016.
(§3) Ceftriaxone, clindamycin, imipenem, metronidazole, moxifloxacin and piperacillin/tazobactam were included as comparators.
(§4) Additional analysis was performed from the results of the study described in Method 1 above, to determine the in vitro activity of gepotidacin against gram-negative and gram-positive anaerobic organisms with resistance to ceftriaxone, clindamycin, imipenem, metronidazole, moxifloxacin and piperacillin/tazobactam.

[2] = tested on: gram-negative and gram-positive anaerobes tested; experiment: MIC by CLSI agar dilution, Example 6 Method 1; format: cell-based
Protocol: as §1, §2, §3, §4

[3] = tested on: Bacteroides spp.; experiment: MIC by CLSI agar dilution, Example 6 Method 1; format: cell-based; settings: for Gepotidacin MIC range: agar dilution
Protocol: as §1, §2, §3, §4

[4] = tested on: Peptostreptococcus anaerobius; experiment: MIC by CLSI agar dilution, Example 6 Method 1; format: cell-based; settings: for Gepotidacin MIC range: 3 isolates
Protocol: as §1, §2, §3, §4

[5] = tested on: Bifidobacterium spp.; experiment: MIC by CLSI agar dilution, Example 6 Method 1; format: cell-based
Protocol: as §1, §2, §3, §4

[6] = tested on: Fusobacterium spp.; experiment: MIC by CLSI agar dilution, Example 6 Method 1; format: cell-based
Protocol: as §1, §2, §3, §4

[7] = tested on: Eubacterium spp.; experiment: MIC by CLSI agar dilution, Example 6 Method 1; format: cell-based
Protocol: as §1, §2, §3, §4

[8] = tested on: Prevotella spp.; experiment: MIC by CLSI agar dilution, Example 6 Method 1; format: cell-based
Protocol: as §1, §2, §3, §4

[9] = tested on: Veillonella spp.; experiment: MIC by CLSI agar dilution, Example 6 Method 1; format: cell-based
Protocol: as §1, §2, §3, §4

[10] = tested on: Eggerthella lenta; experiment: MIC by CLSI agar dilution, Example 6 Method 1; format: cell-based
Protocol: as §1, §2, §3, §4

[11] = tested on: Sutterella wadsworthensis; experiment: MIC by CLSI agar dilution, Example 6 Method 1; format: cell-based
Protocol: as §1, §2, §3, §4

[12] = tested on: Clostridium difficile; experiment: MIC by CLSI agar dilution, Example 6 Method 1; format: cell-based
Protocol: as §1, §2, §3, §4

[13] = tested on: Bacteroides ovatus; experiment: MIC by agar dilution, drug-resistant isolates; format: cell-based
Protocol: as §1, §2, §4

[14] = tested on: Veillonella parvula; experiment: MIC by agar dilution, drug-resistant isolates; format: cell-based
Protocol: as §1, §2, §4

[15] = tested on: Bifidobacterium breve; experiment: MIC by agar dilution, drug-resistant isolates; format: cell-based; settings: moxifloxacin R; 1 isolate
Protocol: as §1, §2, §4

[16] = tested on: Eubacterium limosum; experiment: MIC by agar dilution, drug-resistant isolates; format: cell-based; settings: moxifloxacin R; 2 isolates
Protocol: as §1, §2, §4

[17] = tested on: Lactobacillus rhamnosus; experiment: MIC by agar dilution, drug-resistant isolates; format: cell-based; settings: imipenem R; 18 isolates
Protocol: as §1, §2, §4

[18] = tested on: E. coli ALL; experiment: Immunocompetent mouse kidney infection (pyelonephritis/UTI) model PK/PD; format: in vivo
Protocol: PK and PD studies using gepotidacin were conducted in murine (male CD-1 mice) thigh and kidney infections. The administered doses ranged from 1 to 200 mg/kg SC every 6 hours starting 1h post infection. Infected tissues were evaluated for bacterial burden at 24 h post infection (baseline controls at 1 h post infection).
Efficacy was determined against E. coli ALL, 997577, ATCC25922, IR5 and NCTC13441 (MICs of 1 to 4 μg/mL) in thigh-infected neutropenic (I−) mice and against E. coli ALL in kidney-infected immunocompetent (I+) and I− mice. The PopPK model was used to determine GEP exposures associated with efficacy. PK-PD analyses were conducted using Phoenix WinNonLin 6.3 (Pharsight). The change in login colony forming units (CFU) from baseline were correlated with free drug (f) AUC:MIC using an inhibitory model from the Phoenix library, and model parameter values for each isolate were used to calculate the plasma fAUC:MIC associated with stasis, 1- or 2-login reductions in CFU.
PD studies were conducted using thigh and/or kidney infection models in neutropenic or competent mice (N=5/group). Mice were infected with a bacterial suspension in log phase: 100 μL in the left thigh muscle or 50 μL in each of both kidneys (100 μl total). Final inocula across all isolates were 6.0 to 7.0 login CFU/mouse. Dose-ranging studies were conducted with 5 isolates (see Table 1). Starting 1 hr after infection, GEP was given SC (0.2 mL/mouse) at discrete doses of 1-200 mg/kg every 6 hours (q6) for a 24-hour period (4 doses in total). Mice were euthanized 24 hr after start of therapy (6 hr after the last dose), and infected thighs or kidneys were processed to determine viable bacterial counts (CFU). Baseline CFU were obtained from untreated mice at 1 hr post infection and growth control CFU from saline-treated mice at 24 hr.
NCA analyses were conducted with the simulated data.
PK-PD analysis was conducted using Phoenix WinNonLin 6.3 (Pharsight): • Log10 colony forming units (CFU) from each group were correlated with PK-PD parameters using several inhibitory models from the Phoenix library. • Model parameter values for each isolate were used to calculate the PK-PD parameter value associated with stasis, 1-log or 2-log reductions from baseline 1 h controls.

O=c1ccc2ncc(=O)n3c2n1C[C@H]3CN1CCC(NCc2cc3c(cn2)OCCC3)CC1 [gepotidacin, (2R)-2-({4-[(3,4-dihydro-2H-pyrano[2,3-c]pyridin-6-ylmethyl)amino]-1-piperidinyl}methyl)-1,2-dihydro-3H,8H-2a,5,8a-triazaacenaphthylene-3,8-dione]
MIC90 ([1]; Lactobacillus, 91 isolates, read-out: Gepotidacin MIC90): 1 µg/mL (≈ 2.23 µM)
Gepotidacin MIC range ([1]; clindamycin R, 3 isolates): 0.03 to 1 µg/mL
Gepotidacin MIC range ([1]; imipenem R, 27 isolates): 0.03 to 1 µg/mL
MIC [2]: ≤ 2 µg/mL
MIC90 ([2]; 333 gram-negative and 203 gram-positive anaerobic isolates, per pathogen group): ≤ 4 µg/mL
MIC ([2]; Bacteroides caccae, read-out: MICs): ≤ 4 µg/mL
MIC90 ([3]; Bacteroides, 191 isolates, read-out: Gepotidacin MIC90): 4 µg/mL (≈ 8.92 µM)
Gepotidacin MIC range ([3]; ceftriaxone R, 100 isolates): ≤0.015 to 32 µg/mL
Gepotidacin MIC range ([3]; clindamycin R, 53 isolates): ≤0.015 to 32 µg/mL
Gepotidacin MIC range ([3]; moxifloxacin R, 32 isolates): 0.25 to 32 µg/mL
MIC90 ([4]; Peptostreptococcus anaerobius, 25 isolates, read-out: Gepotidacin MIC90): 0.03 µg/mL (≈ 0.0669 µM)
Gepotidacin MIC range ([4]; clindamycin R): ≤0.015 to 0.03 µg/mL
Gepotidacin MIC range ([4]; moxifloxacin R): 0.03 µg/mL
MIC90 ([5]; Bifidobacterium, 26 isolates, read-out: Gepotidacin MIC90): 0.5 µg/mL (≈ 1.11 µM)
Gepotidacin MIC range ([5]; moxifloxacin R, 3 isolates): 0.125 to 0.5 µg/mL
MIC90 ([6]; Fusobacterium, 25 isolates, read-out: Gepotidacin MIC90): 2 µg/mL (≈ 4.46 µM)
Gepotidacin MIC range ([6]; clindamycin R, 2 isolates): 0.25 to 2 µg/mL
MIC90 ([7]; Eubacterium, 31 isolates, read-out: Gepotidacin MIC90): 2 µg/mL (≈ 4.46 µM)
Gepotidacin MIC range ([7]; moxifloxacin R, 3 isolates): 0.25 to 2 µg/mL
MIC90 ([8]; Prevotella, 30 isolates, read-out: Gepotidacin MIC90): 4 µg/mL (≈ 8.92 µM)
Gepotidacin MIC range ([8]; ceftriaxone R, 6 isolates): 0.25 to 2 µg/mL
Gepotidacin MIC range ([8]; clindamycin R, 7 isolates): 0.25 to 4 µg/mL
MIC90 ([9]; Veillonella, 25 isolates, read-out: Gepotidacin MIC90): 0.12 µg/mL (≈ 0.268 µM)
Gepotidacin MIC range ([9]; clindamycin R, 5 isolates): 0.125 µg/mL
Gepotidacin MIC range ([9]; moxifloxacin R, 3 isolates): ≤0.015 to 0.03 µg/mL
MIC90 ([10]; Eggerthella lenta, 21 isolates, read-out: Gepotidacin MIC90): 4 µg/mL (≈ 8.92 µM)
Gepotidacin MIC range ([10]; ceftriaxone R, 19 isolates): 0.06 to 32 µg/mL
Gepotidacin MIC range ([10]; clindamycin R, 3 isolates): 1 to 4 µg/mL
Gepotidacin MIC range ([10]; moxifloxacin R, 6 isolates): 1 to 32 µg/mL
MIC90 ([11]; Sutterella wadsworthensis, 10 isolates, read-out: Gepotidacin MIC90): 1 µg/mL (≈ 2.23 µM)
Gepotidacin MIC range ([11]; metronidazole R, 4 isolates): 0.5 to 1 µg/mL
Gepotidacin MIC range ([12]; Clostridioides difficile ceftriaxone R, 48 isolates): 0.5 to 4 µg/mL
Gepotidacin MIC range ([12]; Clostridioides difficile clindamycin R, 23 isolates): 0.5 to 2 µg/mL
Gepotidacin MIC range ([12]; Clostridioides difficile imipenem R, 2 isolates): 1 µg/mL
Gepotidacin MIC range ([12]; Clostridioides difficile moxifloxacin R, 37 isolates): 0.5 to 8 µg/mL
MIC90 ([12]; Clostridioides difficile, 100 isolates, read-out: Gepotidacin MIC90): 2 µg/mL (≈ 4.46 µM)
Gepotidacin MIC range ([13]; ceftriaxone R, 8 isolates): 1 to 4 µg/mL
Gepotidacin MIC range ([13]; clindamycin R, 4 isolates): 1 to 4 µg/mL
Gepotidacin MIC range ([13]; moxifloxacin R, 2 isolates): 1 to 4 µg/mL
Gepotidacin MIC range ([14]; ceftriaxone R, 1 isolate): ≤0.015 µg/mL
Gepotidacin MIC range ([14]; clindamycin R, 1 isolate): 0.125 µg/mL
Gepotidacin MIC range ([14]; moxifloxacin R, 2 isolates): ≤0.015 to 0.03 µg/mL
Gepotidacin MIC range ([14]; pip/tazo R, 1 isolate): 0.03 µg/mL
Gepotidacin MIC range [15]: 0.5 µg/mL
Gepotidacin MIC range [16]: 0.25 to 0.5 µg/mL
Gepotidacin MIC range [17]: 0.06 to 1 µg/mL
PK-PD target (fAUC/MIC) in immunocompetent vs neutropenic mice ([18]; I+ (non-neutropenic) mice): reduced by approx. half
Daily fAUC/MIC for 1-log Drop ([18]; Strain ALL, Competent UTI): 3.3
Daily fAUC/MIC for 2-log Drop ([18]; Strain ALL, Competent UTI): 8.1
Daily fAUC/MIC for Stasis ([18]; Strain ALL, Competent UTI): 0.7

From patent US20220184071A1, “GEPOTIDACIN FOR USE IN THE TREATMENT OF BACTERIAL URINARY TRACT INFECTIONS” (GlaxoSmithKline Intellectual Property Development Limited, priority 2019, published 2022)
